Key:
Experiment in all cases: ProQinase radiometric kinase panel
Conditions in all cases: mean of 2 exp.
ABL1 = ABL1 (Homo sapiens, UniProt P00519)
PKC-alpha = PKC-alpha (Homo sapiens, UniProt P17252)
DAPK2 = DAPK2 (Homo sapiens, UniProt Q9UIK4)
S6K = S6K (Homo sapiens, UniProt P23443)
RAF1 (Y340D/Y341D) = RAF1 (Y340D/Y341D) (Homo sapiens, UniProt P04049, Y340D/Y341D)
INS-R = INS-R (Homo sapiens, UniProt P06213)
CDK1/CycB1 = CDK1/CycB1 (Homo sapiens, UniProt P06493)
PLK3 = PLK3 (Homo sapiens, UniProt Q9H4B4)
MKK6 (S207D/T211D) = MKK6 (S207D/T211D) (Homo sapiens, UniProt P52564, S207D/T211D)
ACV-R2B = ACV-R2B (Homo sapiens, UniProt Q13705)
SRC = SRC (Homo sapiens, UniProt P12931)
Sequence of SRC (P12931 whole entry): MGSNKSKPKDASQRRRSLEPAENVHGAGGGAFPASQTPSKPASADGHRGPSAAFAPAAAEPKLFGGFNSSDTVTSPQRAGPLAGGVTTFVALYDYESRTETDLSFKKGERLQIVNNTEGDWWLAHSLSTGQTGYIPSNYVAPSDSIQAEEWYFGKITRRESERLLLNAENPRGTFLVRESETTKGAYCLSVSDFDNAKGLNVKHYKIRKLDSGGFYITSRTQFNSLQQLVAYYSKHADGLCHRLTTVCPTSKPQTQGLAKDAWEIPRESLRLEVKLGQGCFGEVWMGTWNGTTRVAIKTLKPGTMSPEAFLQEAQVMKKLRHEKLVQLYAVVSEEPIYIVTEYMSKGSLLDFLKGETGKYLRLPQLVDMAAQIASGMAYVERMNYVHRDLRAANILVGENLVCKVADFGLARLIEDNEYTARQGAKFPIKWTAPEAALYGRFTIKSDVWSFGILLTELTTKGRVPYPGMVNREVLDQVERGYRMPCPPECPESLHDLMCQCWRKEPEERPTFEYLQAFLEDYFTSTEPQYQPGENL

PKC-eta = PKC-eta (Homo sapiens, UniProt P24723)
ARK5 = ARK5 (Homo sapiens, UniProt O60285)
EPHA4 = EPHA4 (Homo sapiens, UniProt P54764)
EPHA3 = EPHA3 (Homo sapiens, UniProt P29320)
EIF2AK2 = EIF2AK2 (Homo sapiens, UniProt P19525)
Sequence of EIF2AK2 (P19525 whole entry): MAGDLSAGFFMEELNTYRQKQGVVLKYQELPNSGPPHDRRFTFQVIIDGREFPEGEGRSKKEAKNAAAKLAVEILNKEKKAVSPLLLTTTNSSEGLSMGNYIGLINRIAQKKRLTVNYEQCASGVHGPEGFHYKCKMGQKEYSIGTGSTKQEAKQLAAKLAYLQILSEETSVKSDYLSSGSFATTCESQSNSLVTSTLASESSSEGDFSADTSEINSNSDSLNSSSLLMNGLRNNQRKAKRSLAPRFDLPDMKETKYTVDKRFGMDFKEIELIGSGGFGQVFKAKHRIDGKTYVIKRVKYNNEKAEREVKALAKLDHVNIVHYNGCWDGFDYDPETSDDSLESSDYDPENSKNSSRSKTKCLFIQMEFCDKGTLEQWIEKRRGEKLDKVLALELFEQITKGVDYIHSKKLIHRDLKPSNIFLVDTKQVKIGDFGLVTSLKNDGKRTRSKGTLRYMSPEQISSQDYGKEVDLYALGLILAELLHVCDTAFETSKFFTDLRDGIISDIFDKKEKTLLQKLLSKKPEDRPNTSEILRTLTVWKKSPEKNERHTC

EPHA7 = EPHA7 (Homo sapiens, UniProt Q15375)
Sequence of EPHA7 (Q15375 28-998): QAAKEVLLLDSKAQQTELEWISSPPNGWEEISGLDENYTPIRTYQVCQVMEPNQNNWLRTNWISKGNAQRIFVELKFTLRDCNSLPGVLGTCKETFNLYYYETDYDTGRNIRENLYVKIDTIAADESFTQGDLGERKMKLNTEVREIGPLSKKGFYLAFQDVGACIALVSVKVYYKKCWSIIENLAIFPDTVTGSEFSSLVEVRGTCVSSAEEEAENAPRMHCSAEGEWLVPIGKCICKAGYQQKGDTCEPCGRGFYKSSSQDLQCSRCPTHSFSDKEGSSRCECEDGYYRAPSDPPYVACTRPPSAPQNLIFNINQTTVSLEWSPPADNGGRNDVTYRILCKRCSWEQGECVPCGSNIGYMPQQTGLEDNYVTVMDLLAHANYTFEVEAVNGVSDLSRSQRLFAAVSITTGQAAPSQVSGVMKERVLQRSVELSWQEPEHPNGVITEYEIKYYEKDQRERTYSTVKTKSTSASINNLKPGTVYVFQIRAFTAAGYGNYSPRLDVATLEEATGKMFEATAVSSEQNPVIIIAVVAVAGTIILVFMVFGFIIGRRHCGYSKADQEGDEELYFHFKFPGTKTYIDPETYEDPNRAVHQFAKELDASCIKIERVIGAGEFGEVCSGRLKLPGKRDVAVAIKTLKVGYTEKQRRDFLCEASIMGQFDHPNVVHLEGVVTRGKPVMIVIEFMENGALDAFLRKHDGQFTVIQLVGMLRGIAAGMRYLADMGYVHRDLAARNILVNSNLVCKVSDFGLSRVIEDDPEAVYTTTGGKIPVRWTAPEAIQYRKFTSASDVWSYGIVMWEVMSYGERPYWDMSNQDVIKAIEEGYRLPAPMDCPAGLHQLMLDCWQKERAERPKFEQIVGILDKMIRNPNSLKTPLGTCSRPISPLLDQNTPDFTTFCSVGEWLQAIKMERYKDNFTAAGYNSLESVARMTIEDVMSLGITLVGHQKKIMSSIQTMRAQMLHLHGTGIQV

MAP3K9 = MAP3K9 (Homo sapiens, UniProt P80192)
SGK1 = SGK1 (Homo sapiens, UniProt O00141)
VRK1 = VRK1 (Homo sapiens, UniProt Q99986)
RPS6KA6 = RPS6KA6 (Homo sapiens, UniProt Q9UK32)
FYN = FYN (Homo sapiens, UniProt P06241)
FAK = FAK (Homo sapiens, UniProt Q05397)
GRK7 = GRK7 (Homo sapiens, UniProt Q8WTQ7)
CSK = CSK (Homo sapiens, UniProt P41240)
PAK6 = PAK6 (Homo sapiens, UniProt Q9NQU5)
EPHA2 = EPHA2 (Homo sapiens, UniProt P29317)
Sequence of EPHA2 (P29317 24-976): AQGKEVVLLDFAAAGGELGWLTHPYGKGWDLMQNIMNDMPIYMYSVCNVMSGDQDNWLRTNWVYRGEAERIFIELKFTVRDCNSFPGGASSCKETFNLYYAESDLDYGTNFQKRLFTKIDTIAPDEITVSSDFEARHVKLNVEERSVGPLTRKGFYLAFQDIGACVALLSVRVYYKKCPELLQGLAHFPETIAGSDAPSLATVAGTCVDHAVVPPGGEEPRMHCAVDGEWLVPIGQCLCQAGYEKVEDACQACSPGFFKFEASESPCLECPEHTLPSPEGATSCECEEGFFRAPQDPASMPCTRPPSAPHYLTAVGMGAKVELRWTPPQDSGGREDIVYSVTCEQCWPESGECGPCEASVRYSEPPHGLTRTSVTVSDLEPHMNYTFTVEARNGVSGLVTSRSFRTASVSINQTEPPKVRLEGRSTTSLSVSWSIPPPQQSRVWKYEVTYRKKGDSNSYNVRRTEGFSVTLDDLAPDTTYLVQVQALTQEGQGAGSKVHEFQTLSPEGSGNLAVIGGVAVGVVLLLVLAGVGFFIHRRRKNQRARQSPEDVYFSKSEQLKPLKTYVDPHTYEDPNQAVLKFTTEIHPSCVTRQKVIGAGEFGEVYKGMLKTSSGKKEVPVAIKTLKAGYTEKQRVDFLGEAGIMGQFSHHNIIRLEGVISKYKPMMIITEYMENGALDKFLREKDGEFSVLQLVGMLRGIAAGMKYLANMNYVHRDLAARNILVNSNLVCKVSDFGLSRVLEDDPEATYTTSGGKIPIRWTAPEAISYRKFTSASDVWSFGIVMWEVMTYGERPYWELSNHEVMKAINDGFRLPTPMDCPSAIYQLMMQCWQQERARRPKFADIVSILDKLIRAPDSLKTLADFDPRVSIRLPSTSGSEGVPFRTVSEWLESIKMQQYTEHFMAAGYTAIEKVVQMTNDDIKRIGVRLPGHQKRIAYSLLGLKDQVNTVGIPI

mTOR = mTOR (Homo sapiens, UniProt P42345)
MAP4K5 = MAP4K5 (Homo sapiens, UniProt Q9Y4K4)
JNK3 = JNK3 (Homo sapiens, UniProt P53779)
Sequence of JNK3 (P53779 whole entry): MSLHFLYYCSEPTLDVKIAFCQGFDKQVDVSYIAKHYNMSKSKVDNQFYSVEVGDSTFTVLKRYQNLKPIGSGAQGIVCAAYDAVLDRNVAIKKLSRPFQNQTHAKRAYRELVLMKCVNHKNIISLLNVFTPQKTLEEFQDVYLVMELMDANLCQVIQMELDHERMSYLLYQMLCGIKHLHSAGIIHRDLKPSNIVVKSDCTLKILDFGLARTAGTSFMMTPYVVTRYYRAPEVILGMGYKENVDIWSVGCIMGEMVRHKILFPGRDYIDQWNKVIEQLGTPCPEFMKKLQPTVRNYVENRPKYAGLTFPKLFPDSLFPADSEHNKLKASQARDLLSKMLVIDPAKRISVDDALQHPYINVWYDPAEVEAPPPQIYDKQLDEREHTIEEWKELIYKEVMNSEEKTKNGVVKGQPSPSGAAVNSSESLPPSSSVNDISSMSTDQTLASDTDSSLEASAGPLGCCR
Protocol: Gini coefficients were calculated and the Lorenz curve (Fig 3B) was plotted by applying the Microsoft Excel spreadsheet provided by Graczyk [44].
radiometric protein kinase assays.

PKC-nu = PKC-nu (Homo sapiens, UniProt O94806)
EIF2AK3 = EIF2AK3 (Homo sapiens, UniProt Q9NZJ5)
CDC42BPA = CDC42BPA (Homo sapiens, UniProt Q5VT25)
MARK1 = MARK1 (Homo sapiens, UniProt Q9P0L2)
Sequence of MARK1 (Q9P0L2 whole entry): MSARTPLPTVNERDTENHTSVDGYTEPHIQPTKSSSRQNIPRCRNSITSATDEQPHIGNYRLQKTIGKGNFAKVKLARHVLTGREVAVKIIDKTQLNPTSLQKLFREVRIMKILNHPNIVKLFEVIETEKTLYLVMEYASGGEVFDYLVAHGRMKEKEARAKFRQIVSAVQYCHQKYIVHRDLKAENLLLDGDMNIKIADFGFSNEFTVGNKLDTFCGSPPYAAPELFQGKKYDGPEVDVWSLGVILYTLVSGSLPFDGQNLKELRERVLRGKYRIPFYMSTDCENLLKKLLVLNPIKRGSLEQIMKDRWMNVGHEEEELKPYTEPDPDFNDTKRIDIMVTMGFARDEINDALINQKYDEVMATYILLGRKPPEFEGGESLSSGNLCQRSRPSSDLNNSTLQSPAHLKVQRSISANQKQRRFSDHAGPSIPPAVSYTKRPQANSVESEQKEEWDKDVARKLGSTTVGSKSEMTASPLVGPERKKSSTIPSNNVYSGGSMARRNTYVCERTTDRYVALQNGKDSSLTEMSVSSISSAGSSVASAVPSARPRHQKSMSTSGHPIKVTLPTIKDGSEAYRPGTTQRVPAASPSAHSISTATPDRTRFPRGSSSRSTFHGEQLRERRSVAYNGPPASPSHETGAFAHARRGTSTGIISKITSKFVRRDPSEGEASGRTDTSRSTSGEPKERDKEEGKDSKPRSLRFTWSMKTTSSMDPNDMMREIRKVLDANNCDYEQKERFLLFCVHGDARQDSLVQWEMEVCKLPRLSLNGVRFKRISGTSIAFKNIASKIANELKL

RPS6KA3 = RPS6KA3 (Homo sapiens, UniProt P51812)
Sequence of RPS6KA3 (P51812 whole entry): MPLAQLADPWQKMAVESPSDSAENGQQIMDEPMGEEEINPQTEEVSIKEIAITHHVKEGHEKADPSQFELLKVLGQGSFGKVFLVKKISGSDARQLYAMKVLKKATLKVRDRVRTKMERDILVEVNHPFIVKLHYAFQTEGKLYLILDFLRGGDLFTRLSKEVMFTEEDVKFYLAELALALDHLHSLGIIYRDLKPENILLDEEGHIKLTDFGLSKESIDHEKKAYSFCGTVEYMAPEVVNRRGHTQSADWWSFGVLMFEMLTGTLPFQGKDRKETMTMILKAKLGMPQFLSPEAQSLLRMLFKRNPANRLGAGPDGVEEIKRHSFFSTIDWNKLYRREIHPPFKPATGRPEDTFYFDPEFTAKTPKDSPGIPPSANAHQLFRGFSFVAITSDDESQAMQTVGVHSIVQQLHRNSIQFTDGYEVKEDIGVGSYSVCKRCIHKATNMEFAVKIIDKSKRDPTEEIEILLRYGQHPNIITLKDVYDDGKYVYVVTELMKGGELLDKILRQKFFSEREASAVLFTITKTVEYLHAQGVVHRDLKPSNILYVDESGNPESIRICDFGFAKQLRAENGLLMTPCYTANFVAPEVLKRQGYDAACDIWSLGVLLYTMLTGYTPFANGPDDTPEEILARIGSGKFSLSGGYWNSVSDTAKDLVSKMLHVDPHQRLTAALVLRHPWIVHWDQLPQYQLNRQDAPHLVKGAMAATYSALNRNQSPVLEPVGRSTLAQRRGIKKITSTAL

CDK9/CycK = CDK9/CycK (Homo sapiens, UniProt P50750)
PRKD2 = PRKD2 (Homo sapiens, UniProt Q9BZL6)
SGK3 = SGK3 (Homo sapiens, UniProt Q96BR1)
TIE2 = TIE2 (Homo sapiens, UniProt Q02763)

residual activity at 1 µM, Mean (ABL1): 95 % of control
residual activity at 1 µM, Mean (PKC-alpha): 111 % of control
residual activity at 1 µM, Mean (DAPK2): 97 % of control
residual activity at 1 µM, Mean (S6K): 85 % of control
residual activity at 1 µM, Mean (RAF1 (Y340D/Y341D)): 99 % of control
residual activity at 1 µM, Mean (INS-R): 92 % of control
residual activity at 1 µM, Mean (CDK1/CycB1): 81 % of control
residual activity at 1 µM, Mean (PLK3): 96 % of control
residual activity at 1 µM, Mean (MKK6 (S207D/T211D)): 100 % of control
residual activity at 1 µM, Mean (ACV-R2B): 97 % of control
residual activity at 1 µM, Mean (SRC): 95 % of control
residual activity at 1 µM, Mean (PKC-eta): 79 % of control
residual activity at 1 µM, Mean (ARK5): 94 % of control
residual activity at 1 µM, Mean (EPHA4): 99 % of control
residual activity at 1 µM, Mean (EPHA3): 105 % of control
residual activity at 1 µM, Mean (EIF2AK2): 95 % of control
residual activity at 1 µM, Mean (EPHA7): 107 % of control
residual activity at 1 µM, Mean (MAP3K9): 100 % of control
residual activity at 1 µM, Mean (SGK1): 91 % of control
residual activity at 1 µM, Mean (VRK1): 89 % of control
residual activity at 1 µM, Mean (RPS6KA6): 98 % of control
residual activity at 1 µM, Mean (FYN): 92 % of control
residual activity at 1 µM, Mean (FAK): 103 % of control
residual activity at 1 µM, Mean (GRK7): 103 % of control
residual activity at 1 µM, Mean (CSK): 94 % of control
residual activity at 1 µM, Mean (PAK6): 93 % of control
residual activity at 1 µM, Mean (EPHA2): 93 % of control
residual activity at 1 µM, Mean (mTOR): 90 % of control
residual activity at 1 µM, Mean (MAP4K5): 84 % of control
residual activity at 1 µM, Mean (JNK3): 82 % of control
residual activity at 1 µM, Mean (PKC-nu): 87 % of control
residual activity at 1 µM, Mean (EIF2AK3): 99 % of control
residual activity at 1 µM, Mean (CDC42BPA): 76 % of control
residual activity at 1 µM, Mean (MARK1): 101 % of control
residual activity at 1 µM, Mean (RPS6KA3): 101 % of control
residual activity at 1 µM, Mean (CDK9/CycK): 52 % of control
residual activity at 1 µM, Mean (PRKD2): 90 % of control
residual activity at 1 µM, Mean (SGK3): 108 % of control
residual activity at 1 µM, Mean (TIE2): 84 % of control
Structure (SMILES): COc1ccc2c3ccnc(Cl)c3n(CC#N)c2c1 [AnnH75]

— article PMC4508061, “Selectivity Profiling and Biological Activity of Novel β-Carbolines as Potent and Selective DYRK1 Kinase Inhibitors” (PLoS ONE, 2015)
